Patent US20230157952A1, “METHOD FOR IMPROVING THE STABILITY OF A PHARMACEUTICAL COMPOSITION COMPRISING A HIGH PENETRATION DRUG, AND THE PHARMACEUTICAL COMPOSITION OBTAINED THEREFROM” (Techfields Inc., priority 2020, published 2023)
One block for each compound: values may come before it.

Legend:
[1] = Effect of temperature (and pH) on the stability of the solution (purity); assay type: physicochemical; conditions: 7% solution in water
[2] = Effect of concentration on the stability of the solution (purity over time); conditions: for Purity (%) at Day 3 / Purity (%) at Day 7 / Purity (%) at hr 0 / Purity (%) at hr 2 / Purity (%) at hr 24 / Purity(%) at Day 14: 25° C.

Stability of the solution at a temperature higher than 40° C. and a pH lower than 3 or greater than 6 [1]: not stable
Compound: CCN(CC)CCOC(=O)Cc1ccccc1Oc1ccc(Cl)cc1Cl.Cl [2-(diethylamino)ethyl 2-(2,4-dichlorophenoxy)benzeneacetate.HCl]

Stability of common ester over the concentrations tested ([2]; 0.01% to 10% (or higher) in 50% ethanol at 25° C.): very unstable
Purity (%) at Day 3 ([2]; 0.01 wt % in 50% ethanol): 0.0%
Purity (%) at Day 7 ([2]; 0.01 wt % in 50% ethanol): 0.0%
Purity (%) at hr 0 ([2]; 0.01 wt % in 50% ethanol): 97.5%
Purity (%) at hr 2 ([2]; 0.01 wt % in 50% ethanol): 25.2%
Purity (%) at hr 24 ([2]; 0.01 wt % in 50% ethanol): 0.0%
Purity(%) at Day 14 ([2]; 0.01 wt % in 50% ethanol): 0.0%
Purity (%) at Day 3 ([2]; 0.1 wt % in 50% ethanol): 0.0%
Purity (%) at Day 7 ([2]; 0.1 wt % in 50% ethanol): 0.0%
Purity (%) at hr 0 ([2]; 0.1 wt % in 50% ethanol): 97.4%
Purity (%) at hr 2 ([2]; 0.1 wt % in 50% ethanol): 31.2%
Purity (%) at hr 24 ([2]; 0.1 wt % in 50% ethanol): 0.0%
Purity(%) at Day 14 ([2]; 0.1 wt % in 50% ethanol): 0.0%
Purity (%) at Day 3 ([2]; 1 wt % in 50% ethanol): 0.0%
Purity (%) at Day 7 ([2]; 1 wt % in 50% ethanol): 0.0%
Purity (%) at hr 0 ([2]; 1 wt % in 50% ethanol): 97.5%
Purity (%) at hr 2 ([2]; 1 wt % in 50% ethanol): 41.3%
Purity (%) at hr 24 ([2]; 1 wt % in 50% ethanol): 1.6%
Purity(%) at Day 14 ([2]; 1 wt % in 50% ethanol): 0.0%
Purity (%) at Day 3 ([2]; 3 wt % in 50% ethanol): 1.1%
Purity (%) at Day 7 ([2]; 3 wt % in 50% ethanol): 0.0%
Purity (%) at hr 0 ([2]; 3 wt % in 50% ethanol): 97.4%
Purity (%) at hr 2 ([2]; 3 wt % in 50% ethanol): 52.3%
Purity (%) at hr 24 ([2]; 3 wt % in 50% ethanol): 15.4%
Purity(%) at Day 14 ([2]; 3 wt % in 50% ethanol): 0.0%
Purity (%) at Day 3 ([2]; 5 wt % in 50% ethanol): 3.6%
Purity (%) at Day 7 ([2]; 5 wt % in 50% ethanol): 0.0%
Purity (%) at hr 0 ([2]; 5 wt % in 50% ethanol): 97.4%
Purity (%) at hr 2 ([2]; 5 wt % in 50% ethanol): 56.3%
Purity (%) at hr 24 ([2]; 5 wt % in 50% ethanol): 20.3%
Purity(%) at Day 14 ([2]; 5 wt % in 50% ethanol): 0.0%
Purity (%) at Day 3 ([2]; 10 wt % in 50% ethanol): 5.1%
Purity (%) at Day 7 ([2]; 10 wt % in 50% ethanol): 0.0%
Purity (%) at hr 0 ([2]; 10 wt % in 50% ethanol): 97.8%
Purity (%) at hr 2 ([2]; 10 wt % in 50% ethanol): 65.5%
Purity (%) at hr 24 ([2]; 10 wt % in 50% ethanol): 25.1%
Purity(%) at Day 14 ([2]; 10 wt % in 50% ethanol): 0.0%
Compound: CC(C)(C)OC(=O)c1ccccc1 [t-Butyl benzoate, reference compound]

Compound: CCN(CC)CCOC(=O)CCCc1ccc(N(CCCl)CCCl)cc1.Cl [2-(diethylamino)ethyl 4-[bis(2-chloroethyl)amino]benzenebutyrate.HCl]
Stability when the concentration is 0.1% or lower ([2]; in water at 25° C.): not stable
